Experimental data reported in patent US12600716B2 (Gannex Pharma Co., Ltd., priority 2020, dated 2026).
Where two headings read alike, the source gives them in different places.

Legend:
[1] = biological target: T1, human FXR protein (Homo sapiens, UniProt Q96RI1); test: FXR agonist binding ability: time-resolved fluorescence (LanthaScreen) FXR/coactivator assay; type: biochemical; details: GST-labeled human FXR, fluorescein-labeled coactivator, TR-FRET
T1 construct: purchased Invitrogen
Method: FXR Agonist Binding Ability Evaluation of the activation effect of the compound of the present invention with regard to the binding of FXR to its co-stimulatory factor SRC-1 was conducted by using time-resolved analytical techniques. Protein: glutathione-S-transferase (GST)-labeled human FXR protein (Invitrogen) • 2. Coactivator: Fluorescein-labeled steroid receptor coactivator (SRC2-2) (Invitrogen) • 3. Detection reagent: LanthaScreen Time-Resolved Fluorescence Analysis Kit (Invitrogen) • 1. The compound was prepared into a 10 mM DMSO stock solution and stored in a −20° C. refrigerator for a long time. • 2. The compound was diluted to 1 mM before the experiment, and then the compound was diluted 3-fold to 10 concentration points using DMSO. Then use buffer G (Invitrogen, PV4553) to dilute these 10 concentration points by 50 times to become a working fluid. Add 10 μl of each working solution to each well of a 384-well plate. • 3. Prepare a human FXR protein solution (final concentration 20 nM) in chilled buffer G and add 5 μl of human FXR protein solution to each well of a 384-well plate. • 4. Prepare a mix of buffer G containing 2 μM fluorescein-labeled steroid receptor coactivator and 20 nM GST antibody. • 5. Add 5 μl of the mixture prepared in Step 4 to a 384-well plate. • 6. Centrifuge the 384-well plate at 1000 g for 1 minute. • 7. Incubate for 1 hour at room temperature in the dark. • 8. Read the 384-well plate at 520 nm and 495 nm on an Envision 2104 plate reader. • 9. Calculate the EC50 value of the activation effect of the compound.

[2] = biological target: T2, hFXR-LBD-GAL4 (Homo sapiens, UniProt Q96RI1); test: FXR agonist transactivation ability: luciferase reporter gene in HEK293T; type: cell-based; details: read-out: Cell activity
T2 construct: GAL4 (fusion partner); host or cells: HEK293T
T2 sequence (Q96RI1 262-486 limits assumed): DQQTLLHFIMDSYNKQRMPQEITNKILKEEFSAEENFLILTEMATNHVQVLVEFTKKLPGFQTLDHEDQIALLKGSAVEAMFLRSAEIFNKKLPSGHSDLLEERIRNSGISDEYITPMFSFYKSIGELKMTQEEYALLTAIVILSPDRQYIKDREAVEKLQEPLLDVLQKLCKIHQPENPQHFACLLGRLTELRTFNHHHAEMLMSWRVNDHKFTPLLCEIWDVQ
Method: FXR Agonist Transactivation Ability
Evaluation of the ability of the compound of the present invention to promote FXR transactivation was conducted by using luciferase reporter gene expression technology.
• 1. Cell line: HEK293T (Invitrogen) • 2. Expression plasmid: pBIND-hFXR-LBD-GAL4 (Promega), pGL4.35-luciferase (Promega) • 3. Cell culture medium: 10% serum and penicillin/streptomycin double antibody in DMEM medium • 4. Detection reagent: Steady-Glo fluorescence detection system (Promega). • 5. Transfection reagent: TransIT-293 Transfection Reagent (MIRUS BIO)
• 1. The compound was prepared into a 10 mM DMSO stock solution and stored in a −20° C. refrigerator for a long time. • 2. Resuscitation HEK293T cells were seeded in 10 cm culture dishes at a concentration of 5.5×10^6 and incubated for 16 hours at 37° C. in a 5% CO2 incubator. • 3. Return the transfection reagent to room temperature before transfection. The Trans-IT solution was added dropwise to Opti-MEM, and mixed by inversion for 5 minutes; the expression plasmid was added, mixed by inversion, and incubated at room temperature for 20 minutes. • 4. Add the transfection mixture from Step 3 to the prepared 10 cm dish in Step 2 and incubate for 5-6 hours in a 5% CO2 incubator. • 5. Dilute the compound 3 folds to 10 concentration points using DMSO; add 25 nl of compound per well in a 384-well plate using an Echo 550 sonic pipette; add HEK293T cells to the 384-well plate at a concentration of 15,000 cells/well; 37° C. incubate for 16-20 hours in a 5% CO2 incubator. • 6. Add 25 μl of Steady-Glo Fluorescent Reagent to each well and read the fluorescence on an Envision 2104 plate reader. • 7. Calculate the EC50 value of the activation of the compound.

[3] = Mouse pharmacokinetic studies (IV and PO); type: in vivo, Male CD-1 mice; details: for PO F: PO 10 mg/kg vs IV 2.0 mg/kg; for Vd / AUC(0-t) / clearance / half-life / Cmax / Tmax: male, CD-1, plasma; for clearance: read-out: IV Cl; for half-life: read-out: IV T½ (converted)
Method: Mouse Pharmacokinetic Studies
Typical PK study procedure. For i.v. PK studies, a group of three fasted Male CD-1 mice were dosed with the compound (2.0 mg/kg, 0.50 mg/mL in 5% solutol in saline, clear solution), and 0.02 mL blood was collected at 0.0830, 0.250, 0.500, 1.00, 2.00, 4.00, 8.00, 24.0 h. For PO PK studies, a group of three fasted Male CD-1 mice were dosed with the compound (10 mg/kg, 1 mg/mL in 5% solutol in saline, clear solution), and 0.02 mL blood was collected at 0.250, 0.500, 1.00, 2.00, 4.00, 6.00, 8.00, 24.0 h. The blood was collected into EP tubes (containing EDTA K20.85-1.15 mg) and centrifuged at 3,000 g or 3,200 g at 4° C. for 10 min) and plasma was isolated and divided into two vials. One was used for bioanalysis and one was kept as backup. The samples were kept at −60° C. or below, until being analyzed by LC MS/MS. The samples were analyzed with AB SCIEX INSTRUMENTS LC-MS/MS AU-Triple Quad 6500 Plus and data were processed with Phoenix WinNonlin 6.3 (IV-noncompartmental model and PO-noncompartmental model).

[4] = IV 2.0 mg/kg, read-out: IV AUC 0-t
[5] = PO 10 mg/kg, read-out: PO AUC 0-t

Row | Structure (SMILES) | EC50 [1] [nM] | EC50 [2] [nM] | PO F [3] [%] | Vd ([3]; IV 2.0 mg/kg) [L/kg] | AUC(0-t) [3, 4] [ng·h/mL] | clearance ([3]; IV 2.0 mg/kg) [mL/min/kg] | half-life ([3]; IV 2.0 mg/kg) [min] | Cmax ([3]; PO 10 mg/kg) [ng/mL] | Tmax ([3]; PO 10 mg/kg) [min] | AUC(0-t) [3, 5] [ng·h/mL]
1 | Cc1nc(Oc2ccc3cc(OCc4c(-c5c(Cl)cccc5Cl)noc4C4CC4)ccc3c2)ccc1C(=O)O [Compound 10, 6-((6-((5-cyclopropyl-3-(2,6-dichlorophenyl)isoxazol-4-yl)methoxy)naphthalen-2-yl)oxy)-2-methylnicotinic acid] | 50 to 500 | < 200 | 52.6 | 0.66 | 3550 | 9.26 | 96 | 5500 | 25 | 9360
2 | O=C(O)c1cccc(Oc2ccc3cc(OCc4c(-c5c(Cl)cccc5Cl)noc4C4CC4)ccc3c2)n1 [Compound 11, 6-((6-((5-cyclopropyl-3-(2,6-dichlorophenyl)isoxazol-4-yl)methoxy)naphthalen-2-yl)oxy)picolinic acid] | < 50 | 500 to 1000 | 33.3 | 0.294 | 4980 | 6.66 | 86.4 | 5730 | 30 | 8330
3 | O=C(O)c1ccc(Oc2ccc3cc(OCc4c(-c5c(Cl)cccc5Cl)noc4C4CC4)ccc3c2Cl)nc1 [Compound 21, 6-((1-chloro-6-((5-cyclopropyl-3-(2,6-dichlorophenyl)isoxazol-4-yl)methoxy)naphthalen-2-yl)oxy)nicotinic acid] | 50 to 500 | < 200 | 46.2 | 1.75 | 969 | 35.8 | 76.8 | 1480 | 30 | 2220
4 | O=C(O)c1ccc(Oc2cccc3cc(OCc4c(-c5c(Cl)cccc5Cl)noc4C4CC4)ccc23)nc1 [Compound 22, 6-((6-((5-cyclopropyl-3-(2,6-dichlorophenyl)isoxazol-4-yl)methoxy)naphthalen-1-yl)oxy)nicotinic acid] | < 50 | < 200 | 32 | 1.84 | 448 | 73.8 | 50.2 | 894 | 30 | 718
5 | O=C(O)c1ccnc(Oc2cccc3cc(OCc4c(-c5c(Cl)cccc5Cl)noc4C4CC4)ccc23)c1 [Compound 24, 2-((6-((5-cyclopropyl-3-(2,6-dichlorophenyl)isoxazol-4-yl)methoxy)naphthalen-1-yl)oxy)isonicotinic acid] | < 50 | < 200 | 12 | 2.94 | 330 | 105 | 56.4 | 209 | 18 | 198
6 | O=C(O)c1ccc(F)cc1Oc1cccc2cc(OCc3c(-c4c(Cl)cccc4Cl)noc3C3CC3)ccc12 [Compound 26, 2-((6-((5-cyclopropyl-3-(2,6-dichlorophenyl)isoxazol-4-yl)methoxy)naphthalen-1-yl)oxy)-4-fluorobenzoic acid] | < 50 | < 200 | 17 | 0.745 | 969 | 35 | 37.2 | 900 | 30 | 830
7 | Cc1nc(Oc2cccc3cc(OCc4c(-c5c(Cl)cccc5Cl)noc4C4CC4)ccc23)ccc1C(=O)O [Compound 27, 6-((6-((5-cyclopropyl-3-(2,6-dichlorophenyl)isoxazol-4-yl)methoxy)naphthalen-1-yl)oxy)-2-methylnicotinic acid] | < 50 | < 200 | 33.2 | 0.897 | 1690 | 19.7 | 96.6 | 2080 | 30 | 2780
